Literature values, collected in patent publication US20100015141A1, “4-PHENOXY-6-ARYL-1H-PYRAZOLO[3,4-D]PYRIMIDINE AND N-ARYL-6-ARYL-1H-PYRAZOLO[3,4-D]PYRIMIDIN-4-AMINE COMPOUNDS, THEIR USE AS MTOR KINASE AND PI3 KINASE INHIBITORS, AND THEIR SYNTHESES” (Wyeth, priority 2008, published 2010).

System: acute lymphoblastic leukemia
Details: in vivo; cited from earlier work

Q: With `CO[C@H]1C[C@@H]2CC[C@@H](C)[C@@](O)(O2)C(=O)C(=O)N2CCCC[C@H]2C(=O)O[C@H]([C@H](C)C[C@@H]2CC[C@@H](OC(=O)C(C)(CO)CO)[C@H](OC)C2)CC(=O)[C@H](C)/C=C(\C)[C@@H](O)[C@@H](OC)C(=O)[C@H](C)C[C@H](C)/C=C/C=C/C=C/1C` [Torisel] as the molecule, how does the “activity in NOS/SCID xenograft mouse model of acute lymphoblastic leukemia” value read?
A: The value was “active”.
